{"source": "patent US8329187B2", "about": "“Compositions of spores of non pathogenic bacteria” (Neuroscienze Pharmaness S.C. A.R.L., priority 2009, dated 2012)", "origin": "cited, not measured here", "system": "gastrointestinal transit", "settings": "shown in example 6 of EP 1,602,658", "data": [{"smiles": "Cc1c(C(=O)c2cccc3ccccc23)c2cccc3c2n1[C@H](CN1CCOCC1)CO3", "note": "[WIN 55.212-2]", "values": [{"measurement": "effect on gastrointestinal transit (constipating activity)", "value": "slackens the gastrointestinal transit"}]}]}
